What was measured:
[1] = test system: Pancreatic CSCs; test: Transwell migration assay; format: cell-based, human; conditions: for migration: EGCG 0-60 μM with or without quercetin 20 μM, 48 hrs
Experimental: (A) Pancreatic CSCs were treated with EGCG (0-60 μM) for 48 h. At the end of incubation period, the expression of Snail, ZEB1 and Slug was measured by q-RT-PCR. […] (B) Transwell migration assay. Pancreatic CSCs were plated in the top chamber of the transwell and treated with EGCG (0-60 μM) for 24 h. Cells migrated to the lower chambered were fixed with methanol, stained with crystal violet and counted. […] (C) Matrigel invasion assay. CSCs were plated onto the Matrigel-coated membrane in the top chamber of the transwell and treated with EGCG (0-60 μM) for 48 h. Cells invaded to the lower chambered were fixed with methanol, stained with crystal violet and counted. […] (D) Effects of EGCG on TCF-1/LEF activity. Pancreatic CSCs were transduced with TCF/LEF responsive GFP/firefly luciferase viral particles (pGreen Fire1-Gli with EF1, System Biosciences). Transduced CSCs were treated with EGCG (0-60) for 48 h and the GFP fluorescence was measured. […] FIG. 42A and FIG. 42B show graphs showing quercetin synergizes with EGCG to inhibit self-renewal capacity, invasion, migration, and TCF/LEF and Gli transcriptional activities in pancreatic CSCs. (A) Effects of EGCG and quercetin on spheroid and colony formation. Upper Panel, uercetin synergizes with EGCG to inhibit spheroid's cell viability. CSCs were seeded in suspension and treated with EGCG (0-60 μM) with or without quercetin (20 μM) for 7 days. At the end of incubation period, all the spheroids were collected and resuspended. Cell viability was measured by trypan blue assay. […] Lower panel, uercetin synergizes with EGCG to inhibit colony formation. […] At the end of incubation period, colonies were counted. […] Cells invaded to the lower chambered were fixed with methanol, stained with crystal violet and counted. […] Cells migrated to the lower chambered were fixed with methanol, stained with crystal violet and counted. […] Apoptosis was measured by TUNEL assay. […] Transduced CSCs were treated with EGCG (40 μM) with or without quercetin (20 μM) for 48 hrs and the luciferase activity was measured.

[2] = test system: Prostate CSCs; test: apoptosis; format: cell-based, human; conditions: embelin 0-6 μM 48 h; rottlerin 0-2 μM 24 h
Experimental: (§1) In particular, embelin is shown to inhibit spheroid and colony formation, and induce caspase-3 and apoptosis. (A) Prostate CSCs were grown in CSC medium and treated with embelin (0-6 μM) for 7 days to obtain primary spheroids. At the end of incubation period, spheroids were collected, reseeded and treated with embelin for another week to obtain secondary spheroids. Cell viability in spheroids was measured by trypan blue assay at the end of 7 and 14 days. […] (B) Prostate CSCs were seeded in soft agar and treated with embelin (0-6 μM) for 21 days. […] (C and D) Activation of caspase-3 and induction of apoptosis is shown.
as §1, with “(A)” for “In particular, embelin is shown to inhibit spheroid and colony formation, and induce caspase-3 and apoptosis. (A)”, “rottlerin (0-2” for “embelin (0-6”, “rottlerin” for “embelin”, “apoptosis.” for “apoptosis is shown.”

[3] = test system: Prostate CSCs; test: caspase-3 activity; format: cell-based, human; conditions: 24 h; embelin 0-6 μM, rottlerin 0-2 μM
Experimental: as §1
as §1, with “(A)” for “In particular, embelin is shown to inhibit spheroid and colony formation, and induce caspase-3 and apoptosis. (A)”, “rottlerin (0-2” for “embelin (0-6”, “rottlerin” for “embelin”, “apoptosis.” for “apoptosis is shown.”

[4] = test system: Pancreatic CSCs; test: pancreatic CSCs xenografted sub-cutaneously in NSG mice; format: in vivo; conditions: NOD/SCID/IL2R gamma mice, 20 mg/kg, 6 weeks
Experimental: (§2) (A) Pancreatic CSCs were orthotopically implanted in pancreas of NSG mice, and treated with or without sulforaphane 20 mg/kg, for 6 weeks, (B and C) Pancreatic CSCs were xenografted sub-cutaneously in NSG mice, and treated with or without rottlerin and embelin 20 mg/kg, for 6 weeks, (D and E) Prostate CSCs were xenografted sub-cutaneously in NSG mice, and treated with or without rottlerin and embelin 20 mg/kg, for 6 weeks. At the end of the treatment, weights of tumors in treated mice were compared with control mice.

[5] = test system: Gli reporter activity in prostate CSCs; test: Gli-responsive dual luciferase reporter; format: cell-based, human; conditions: rottlerin 0-2 μM, 24 h, dual luciferase assay
Experimental: FIG. 17 graphs showing the regulation of Shh, Notch and TGFβ pathways by rottlerin. […] The expression of Patched-1, Patched-2, SMO, Gli1 and Gli2 was measured by qRT-PCR. […] Data were normalized with GAPDH. (D) Prostate CSCs were treated with rottlerin (0-1 μM) for 24 h. The expression of Notch1, Notch3 and JAG1 was measured by qRT-PCR. (E) TCF/LEF-1, Gli and Notch reporter activities. Prostate CSCs were transduced with a mixture of TCF/LEF1-, Gli-, or Notch-responsive firefly luciferase construct and Renilla luciferase construct (40:1) along with lipofectamine. After transduction, medium was changed and CSCs were treated with rottlerin (0-2 μM) for 24 h. […] (F) Immunofluorescence analysis of Gli1 and Gli2 expression in prostate CSCs. Green=Gli1 or Gli2; red=nucleus.

[6] = test system: Prostate CSCs; test: prostate CSCs xenografted sub-cutaneously in NSG mice; format: in vivo; conditions: NOD/SCID/IL2R gamma mice, 20 mg/kg, 6 weeks
Experimental: as §2

[7] = test system: human pancreatic cancer cells
[8] = test system: Brain CSCs; test: cell viability by XTT assay; format: cell-based; conditions: 3 days; 0-20 μM
Experimental: (A-B) Brain CSCs were treated with sulforaphane (0-20 μM), and honokiol (0-20 μM) for 3 days, and cell viability was measured by XTT assay.

[9] = test system: pancreatic cancer stem cells

O=C(O[C@@H]1Cc2c(O)cc(O)cc2O[C@@H]1c1cc(O)c(O)c(O)c1)c1cc(O)c(O)c(O)c1 [EGCG, epigallocatechin gallate]
migration [1]: inhibited cell viability in spheroids, colony formation, migration and invasion by CSCs in a dose-dependent manner | cell migration ([1]; EGCG 0-60 μM, 24 h): inhibited

O=c1c(O)c(-c2ccc(O)c(O)c2)oc2cc(O)cc(O)c12 [quercetin]
migration [1]: effective alone

CC(=O)c1c(O)c(C)c(O)c(Cc2c(O)c3c(c(C(=O)/C=C/c4ccccc4)c2O)OC(C)(C)C=C3)c1O [rottlerin]
apoptosis [2]: induces | caspase-3 activity [3]: induces | tumor growth (weights of tumors vs control mice) [4]: inhibit tumor growth | Gli responsive reporter activity [5]: inhibited the TCF/LEF1, Gli1 and Notch responsive reporter activities in a dose-dependent manner | tumor growth (weights of tumors vs control mice) [6]: inhibit tumor growth

C[S+]([O-])CCCCN=C=S (centres unmarked) [sulforaphane]
growth of human pancreatic cancer cells [7]: inhibits the growth | cell viability [8]: inhibit cell viability | growth of pancreatic cancer stem cells [9]: inhibits the growth

From patent publication US20160374944A1, “COMPOSITIONS AND METHODS FOR TREATING AND PREVENTING CANCER BY TARGETING AND INHIBITING CANCER STEM CELLS” (priority 2011, published 2016)
